# Assays:
# RKO cells [1] = assay: MTT assay in RKO cells; type: cell-based; details: Homo sapiens
# Protocol: (§1) The inventors identified nine inhibitors and perfomed an EdU assay after treating non-malignant (HEK293, AML12) and malignant (HepG2, MzChA-1, HT-29, RKO) cells with varying concentrations of GIT1 inhibitor for 24 hours (results are mean±SE from 3 independent experiments done in duplicates, *p<0.05 vs. DMSO). An MTT assay was also performed after treating primary human and mouse hepatocytes and liver and colon cancer cells with varying concentrations of GIT1 inhibitor for 24 hours (results are mean±SE from 3 independent experiments done in duplicates, *p<0.05 vs. DMSO). […] Percoll may be used to remove dead human hepatocytes.
# HepG2 cells [2] = assay: MTT assay in HepG2 cells; type: cell-based; details: Homo sapiens
# Protocol: as §1
# [3] = system: malignant (HepG2, MzChA-1, HT-29, RKO) cells; assay: EdU/MTT growth assay in cancer cells; type: cell-based
# Protocol: as §1
# [4] = system: non-malignant (HEK293, AML12) cells; assay: EdU/MTT growth assay in non-malignant cells; type: cell-based; details: 10 μM, 24 hours
# Protocol: as §1
# RKO cells [5] = assay: Cell cycle flow cytometry RKO; type: cell-based, human; details: 1-5 μM, 24 hours
# AML12 cells = assay: Cell cycle flow cytometry AML12; type: cell-based; details: 1-5 μM, 24 hours
# HEK293 cells = assay: Cell cycle flow cytometry HEK293; type: cell-based; details: 1-5 μM, 24 hours
# HepG2 cells [6] = assay: Annexin V-FITC/propidium iodide assay HepG2; type: cell-based; details: 5 μM, 24-48 hours
# Protocol: (§2) FIG. 8 depicts, in accordance with various embodiments of the invention, results of an annexin V-FITC/propidium iodide binding assay performed in human and mouse hepatocytes, AML12, HEK293, HepG2, and RKO cells after treatment with 5 μM of a GIT1 inhibitor or DMSO for 24-48 hours (results are shown as mean±SE from at least 3 experiments. *p<0.05 vs. DMSO).
# (§3) An annexin V-FITC/propidium iodide (PI) binding assay was performed with flow cytometry. […] Both G2/M arrest and cell death are mechanisms by which compound C3 inhibits cancer cells' growth.
# human hepatocytes = assay: Annexin V-FITC/propidium iodide assay human hepatocytes; type: cell-based; details: 5 μM, 24-48 hours
# Protocol: as §2, §3
# mouse hepatocytes = assay: Annexin V-FITC/propidium iodide assay mouse hepatocytes; type: cell-based; details: 5 μM, 24-48 hours
# Protocol: as §2, §3
# GIT1-MAT2B = GIT1-MAT2B (Homo sapiens, UniProt Q9Y2X7); assay: Co-IP MAT2B-GIT1 interaction in HepG2 cells; type: cell-based; details: HepG2, 10 μM, 24 hours
# GIT1-MAT2B, sequence (Q9Y2X7 whole entry): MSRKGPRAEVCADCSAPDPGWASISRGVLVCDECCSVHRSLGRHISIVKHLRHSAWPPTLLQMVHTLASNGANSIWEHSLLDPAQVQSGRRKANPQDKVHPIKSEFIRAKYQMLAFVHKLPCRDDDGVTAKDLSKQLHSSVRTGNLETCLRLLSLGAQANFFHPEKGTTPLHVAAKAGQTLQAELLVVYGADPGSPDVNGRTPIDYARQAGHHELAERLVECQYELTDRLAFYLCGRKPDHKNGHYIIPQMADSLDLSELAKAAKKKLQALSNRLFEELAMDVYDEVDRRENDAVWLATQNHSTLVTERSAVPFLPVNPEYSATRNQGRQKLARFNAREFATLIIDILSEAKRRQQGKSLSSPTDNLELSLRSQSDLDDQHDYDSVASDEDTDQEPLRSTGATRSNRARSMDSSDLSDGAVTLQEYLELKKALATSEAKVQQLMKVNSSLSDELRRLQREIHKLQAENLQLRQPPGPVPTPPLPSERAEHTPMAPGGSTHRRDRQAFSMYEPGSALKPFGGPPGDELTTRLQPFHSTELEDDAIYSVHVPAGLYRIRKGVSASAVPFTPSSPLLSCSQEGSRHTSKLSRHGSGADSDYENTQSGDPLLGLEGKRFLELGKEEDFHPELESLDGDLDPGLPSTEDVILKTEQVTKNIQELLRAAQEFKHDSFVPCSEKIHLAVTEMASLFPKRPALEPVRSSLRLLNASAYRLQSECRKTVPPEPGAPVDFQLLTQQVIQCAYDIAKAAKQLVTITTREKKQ
# From the text: (§4) GIT1-MAT2B scaffold complex sequesters and activates RAS/RAF/MEK/ERK signaling.
# [7] = system: MEK1/2 interaction with GIT1, Raf, and ERK; assay: Co-IP anti-MEK1/2 in HepG2 and RKO cells; type: cell-based; details: 10 μM, 24 hours
# From the text: as §4
# MEK and ERK activity [8] = assay: Western blot ERK and MEK activity in HepG2 cells; type: cell-based; details: 2-10 μM, 24 hours
# Protocol: Treatment of human hepatocytes with 10 μM compound C3 had no effect on MEK or ERK activity.
# MEK and ERK activity [9] = assay: Western blot ERK and MEK activity in AML12 cells; type: cell-based; details: 2-10 μM, 24 hours
# cyclin B1/CDK1 = assay: Cyclin B1/CDK1 activation; type: cell-based
# Protocol: HepG2 and RKO cells were treated with 5 μM of compound C3 for 24 hours, followed by co-IP with anti-CDK1 antibody and western blots. […] The densitometric changes are from at least 3 independent experiments in mean±SE; *p<0.05 vs. DMSO. Binding of cyclin BI to CDK1 initiates conformational changes allowing CDK1 to alter its phosphorylation status and to become an active kinase.
# MC38 cells = assay: Syngeneic subcutaneous MC38 mouse model; type: in vivo, C57/BL6 mouse
# Protocol: MC38 cells were injected subcutaneously in both flanks. Compound C3 and DMSO were injected intratumorally every other day at 100 μM (5×IC50) starting at day 7 when the tumors averaged 0.5 cm in diameter. Tumor size was measured by caliper, with the tumor volume calculated according to the formula: (π/6)*(length*width*height). Each mouse received compound C3 injection in tumors on one flank and DMSO in the contralateral tumor. Animals were sacrificed on day 13.
# RKO cells [10] = assay: RKO growth in liver of nude mice; type: in vivo; details: 25 mg/kg ip daily for 5 days
# Protocol: FIG. 39A-FIG. 39D depicts, in accordance with various embodiments of the invention, compound C3 inhibits human CRC growth in liver. RKO cells (2×10^6) stably expressing luciferase were injected into the liver of nude mice. Twenty days later (day 0) DMSO and compound C3 were injected intraperitoneally (ip) in FIG. 39A pilot experiment using 10 mg/kd/d×5 days, rest 2 days and repeat. FIG. 39B 25 mg/kg daily for 5 days and imaged on day 7 using IVIS Spectrum photon-counting device optical imaging system (Xenogen, Alameda, CA.). FIG. 39C graph summarizes luciferase intensity from FIG. 39B. FIG. 39D gross pictures of the livers at day 7 from FIG. 39B, point to tumors *p<0.05.
# Compound C3 powder was dissolved in pure DMSO at 50 mg/ml, as a stock store in-80 °C. Stock solution was dissolved in 200 μl 0.9% saline to reach 25 mg/kg. For control group, DMSO was dissolved in 200 μl saline to achieve a concentration of DMSO in saline of 7.5%. RKO cells (2×106) stably expressing luciferase were injected directly into the liver of nude mice. Twenty days later DMSO and Compound C3 were injected intraperitoneally (ip) at a dose of 25 mg/kg daily for 5 days and imaged on day 7.
# [11] = system: CRC organoids from AKPS mice; assay: EdU assay of CRC organoids; type: cell-based; details: "10M", 24 hours
# Protocol: An EdU assay of CRC organoids from AKPS mice (APCF/Fp53F/FKRAS+SMAD4KOCDX2ERT+) was treated with […] of compound C3 for 24 hours.
# [12] = 100 μM intratumorally every other day
# [13] = 100 μM intratumorally, western blot
smiles,measurement,setting,value
"CC1(C)Cc2nc3sc4c(=O)n(CC(=O)NCc5ccco5)cnc4c3cc2CO1 [Compound C3, 2-(8,8-Dimethyl-4-oxo-7,10-dihydro-8H-pyrano[3″,4″: 5′,6′]pyrido[3′,2′: 4,5]thieno[3,2-d]pyrimidin-3 (4H)-yl)-N-(2-furylmethyl) acetamide]",IC50,RKO cells [1],~20 µM
same,IC50,HepG2 cells [2],~20 µM
same,apoptosis in cancer cells (FIG. 33),[3],slight increase in apoptosis
same,cytotoxicity in cancer cells,"[3]; 10 μM, 24 hours",cytotoxic in cancer cells at 10 μM
same,growth inhibitory effect,"[3]; 24 hours, among nine inhibitors",most potent growth inhibitory effect
same,cytotoxicity in non-malignant cells,[4],not in non-malignant cells
same,"G2/M phase, RKO",RKO cells [5],G2/M phase was significantly increased
same,"percentage of cells in G1 phase, RKO",RKO cells [5],lowered the percentage of cells in G1 phase
same,"G2/M arrest, AML12",AML12 cells,did not occur
same,"G2/M arrest, HEK293",HEK293 cells,did not occur
same,"apoptosis, HepG2",HepG2 cells [6],significant apoptosis
same,"necrosis, HepG2",HepG2 cells [6],significant necrosis
same,"cell death, human hepatocytes",human hepatocytes,does not induce cell death
same,"cell death, mouse hepatocytes",mouse hepatocytes,does not induce cell death
same,GIT1-MAT2B scaffold formation,GIT1-MAT2B,disrupted GIT1-MAT2B scaffold formation
same,RAF/MEK/ERK recruitment,[7],reduced RAF/MEK/ERK recruitment
same,"ERK and MEK activities, HepG2",MEK and ERK activity [8],lower
same,"ERK and MEK activities, AML12",MEK and ERK activity [9],not in AML12 cells
same,cyclin B1/CDK1 activation,cyclin B1/CDK1,activated cyclin B1/CDK1
same,H&E of tumors,MC38 cells; [12],spindle MC38 tumor cells turned into small round cells
same,H&E staining of major organs,MC38 cells; [12],no tissue damage or toxicity
same,PCNA staining in tumors,MC38 cells; [12],dramatic effect in reducing its staining
same,TUNEL assay of tumors,MC38 cells; [12],more apoptopic cells
same,body weights,MC38 cells; [12],not significantly different
same,"tumor growth, subcutaneous","MC38 cells; 100 μM intratumorally every other day from day 7, day 13",inhibits colon cancer growth
same,MEK1/2 activity in tumors,MC38 cells; [13],decreased MEK1/2 activity
same,cyclin D1 level in tumors,MC38 cells; [13],less cyclin D1 level
same,overt toxicity,RKO cells [10],without causing overt toxicity
same,tumor growth in liver,RKO cells [10]; imaged day 7,effective in reducing tumor growth
same,CRC organoid appearance,[11],does not affect appearance
same,CRC organoid growth,[11],inhibits CRC organoids growth

# Source: patent US20260356849A1, “COMPOUNDS AND METHODS FOR TREATING CANCERS” (CEDARS-SINAI MEDICAL CENTER, priority 2022, published 2026)
